Values quoted from earlier work as cited in patent US20220000751A1, “METHOD FOR PREPARING AND USING HAIR TREATMENT AGENTS WITH ORGANIC C1-C6-ALKOXY-SILANES” (Henkel AG & Co. KGaA, priority 2020, published 2022).

Conditions: 25° C.

solubility in water (in words)	SMILES	solubility in water
	CCN(Cc1cccc(S(=O)(=O)O)c1)c1ccc(C(=C2C=CC(=[N+](CC)Cc3cccc(S(=O)(=O)O)c3)C=C2)c2ccccc2S(=O)(=O)[O-])cc1 [Acid Blue 9]	more than 20 % by weight
	O=S(=O)(O)c1ccc(N=Nc2c(O)ccc3ccccc23)cc1 [Acid Orange 7, 4-[(2-hydroxy-1-naphthyl)azo]benzene sulphonate]	more than 7 g/L
highly soluble	O=C(O)C1=NN(c2ccc(S(=O)(=O)O)cc2)C(=O)C1N=Nc1ccc(S(=O)(=O)O)cc1 (stereo not drawn) [Acid Yellow 23, 4,5-dihydro-5-oxo-1-(4-sulfophenyl)-4-((4-sulfophenyl)azo)-1H-pyrazole-3-carboxylic acid]	
